From patent US9018226B2, “Antipsychotic agents and standardized antipsychotic fractions from Rauwolfia tetraphylla and process of their isolation” (Council of Scientific & Industrial Research, priority 2009, dated 2015)

Experiments:
[1] = test system: amphetamine induced hyperactive mouse model; test: amphetamine induced hyperactivity mouse model; type: in vivo, Swiss mice; settings: for in-vivo antipsychotic activity, in words: mouse
Description: (§1) The above fractions were evaluated for their antipsychotic activity. In order to assess the antipsychotic potential of MeOH extract, its various fractions, alkaloids isolated and their derivatives from Rauwolfia tetraphylla leaf, amphetamine induced hyper activity mouse model was used following the method of Szewczak et al (1987). Adult Swiss mice of either sex (25±2 g body weight) obtained from the Indian Institute of Toxicology Research (IITR), Lucknow, India animal-breeding colony were used throughout the experiment. The animals were housed in plastic polypropylene cages under standard animal house conditions with a 12 hours light/dark cycle and temperature of 25±2° C. The animals had adlibitum access to drinking water and pellet diet (Hindustan Lever Laboratory Animal Feed, Kolkata, India). The Animal Care and Ethics Committee of IITR approved all experimental protocols applied to animals.
Mice were injected with amphetamine (5 mg/kg, i.p.) 60 minutes after oral treatment with respective extract in each group.
as §1, with “In” for “The above fractions were evaluated for their antipsychotic activity. In”
The mice randomly grouped in batches of seven animals per group. The basal motor activity (distance traveled) of each mouse was recorded individually using automated activity monitor (TSE, Germany). After basal activity recording, a group of seven animals were challenged with amphetamine [[…], intra peritoneal (i.p) dissolved in normal saline]. After 30 min. amphetamine injection, motor activity was recorded for individual animal for 5 min.
The difference in motor activity as indicated by distance traveled in animals with amphetamine alone treated and animals with samples plus amphetamine challenge was recorded as inhibition in hyperactivity caused by amphetamine and the data presented as percent inhibition in amphetamine induced hyperactivity.

[2] = test system: alpha-2 adrenoceptor; settings: rats and mice; cited from earlier work
[3] = test system: alpha-2 adrenoceptors; settings: in vivo; cited from earlier work

CC(N)Cc1ccccc1 (stereo not shown) [Amphetamine]
Distance traveled ([1]; amphetamine alone, 5 mg/Kg i.p.): 6064 cm

c1ccc2c(c1)OCC(C1=NCCN1)O2 (stereo not shown) [RX 781094]
effectiveness relative to α-yohimbine in antagonizing clonidine hypotension and sedation [2]: approximately 3 times

COC(=O)[C@H]1[C@H]2C[C@@H]3c4[nH]c5cc(OC)ccc5c4CCN3C[C@H]2C[C@@H](OC(=O)c2cc(OC)c(OC)c(OC)c2)[C@@H]1OC [Reserpine]
Anti-psychotic activity (% inhibition in amphetamine induced hyperactivity) ([1]; dose 5 mg/Kg): 34% | Distance traveled ([1]; dose 5 mg/Kg, amphetamine 5 mg/kg i.p. 60 minutes later): 4002 cm | Distance traveled ([1]; dose […], amphetamine 5 mg/kg i.p. 60 minutes later): 5093 cm

COC(=O)[C@H]1[C@H]2C[C@H]3c4[nH]c5ccccc5c4CCN3C[C@H]2CC[C@@H]1O [Compound K001, 17α-hydroxy-20α-yohimban-16β-carboxylic acid methyl ester]
alpha-2 adrenoceptor selectivity relative to RS 21361 [3]: ~2 times | alpha-2 adrenoceptor selectivity relative to RX 781094 [3]: about 25 times | inhibition in amphetamine induced hyperactivity mice model ([1]; 6.25 mg/Kg): > 60% | in-vivo antipsychotic activity, in words [1]: significant in-vivo antipsychotic activity at lower doses | in-vivo antipsychotic activity, in words ([1]; listed as α-yohimbine (K001)): more active even at lower doses
